Assays:
[1] = system: RGCs (retinal ganglion cells); assay: Retinal Ganglion Cell Survival Assay (serum deprivation); assay type: cell-based, Neonatal, Sprague-Dawley rats; settings: cultured without serum; Propentofylline 100 μM; 3 days after serum removal; survival with serum = 100%; mean and SEM (n = 6)
Source text: Retinal Ganglion Cell Survival Assay:
Techniques for the isolation and culture of RGCs were adapted from those reported by Takahashi N. et al., Rat retinal ganglion cells in culture. Exp. Eye Res. volume 53, pages 565-572 (1991). […] Two to 4 days later, retina cells were dissociated. Cultured RGCs were identified by sufficient Di-I fluorescence to be observed visually using a fluorescent microscope.
Neonatal, Sprague-Dawley rats, 2-5 days old, were anesthetized by hypothermia, after which, a 2 mm midline opening was made in the scalp just caudal to the traverse sinus. The tip of the injection needle (30 gauge) was inserted 6 mm below the top of the skull, and a 5 μl Di-I solution, containing 3 mg/ml Di-I (1,1′-dioctadecyl-3,3,3′,3′-tetramethylindo-carbocyanine perchlorate (Molecular Probes, Eugene, Oreg.) in 90% ethanol and 10% dimethylsulfoxide, was injected. The wound was then covered with a drop of Flexible Collodion (Amend Drug & Chemical Co., Irvington, N.J.). Rats were returned to their mother after warming and recovery from anesthesia.
Two to 4 days after Di-I injection, rats were anesthetized by hypothermia and sacrificed by decapitation. Their eyes were enucleated and placed in Dulbecco's modified Eagle's medium: Nutrient mixture F12 (1:1; DMEM/F12, Gibco Co., Grand Island, N.Y.). The retina from each eye was detached and isolated. […]

axotomized RGCs = settings: single intravitreal injection of 5 μg on Day 0; one week after; untreated retinas lost nearly half of the axotomized RGCs; cited from earlier work

Molecule	RGC Survival (%) [1] [%]	survival of axotomized RGCs (axotomized RGCs)
CCCn1cnc2c1c(=O)n(CCCCC(C)=O)c(=O)n2C [Propentofylline, propentofylline]	96.9 ± 4.8	
brain-derived neurotrophic factor (protein, UniProt P23560 19-247, looked up) Neurotrophic factor BDNF …: APMKEANIRGQGGLAYPGVRTHGTLESVNGPKAGSRGLTSLADTFEHVIEELLDEDQKVRPNEENNKDADLYTSRVMLSSQVPLEPPLLFLLEEYKNYLDAANMSMRVRRHSDPARRGELSVCDSISEWVTAADKKTAVDMSGGTVTVLEKVPVSKGQLKQYFYETKCNPMGYTKEGCRGIDKRHWNSQCRTTQSYVRALTMDSKKRIGWRFIRIDTSCVCTLTIKRGR		virtually all RGCs were present
